Experimental data: patent US11981711B2, “Methods of treating spinal cord injury using a chondroitin sulfate proteoglycan (CSPG) reduction peptide (CRP) comprising a cell membrane penetrating domain, a CSPG binding domain, and a lysosome targeting domain” (The Cleveland Clinic Foundation, priority 2017, dated 2024)

How the values were obtained:
spinal cord injury (SCI) [1] = assay: Bladder function (voiding, CMG, EUS EMG) after T8 contusive SCI, sub-acute CRP treatment; format: in vivo, rat
Description: (§1) In this Example, the CRP has been applied in a preclinical rat model to test the efficacy of the treatment of spinal cord injury (SCI). The injury was made at thoracic 8 level using contusive injury device. The contusive SCI is the most clinical relevance among all experimental SCI models. We have assessed both motor and bladder control as functional outcomes and analyzed anatomical evidences to support these findings. We also selected sub-acute phase (ONE-DAY after SCI) and chronic phase (TWO-MONTHs after SCI) to start our treatment.
(§2) Furthermore CRP can efficiently improve locomotion and bladder electromyography (EMG) activities and voiding patterns after SCI.
(A) Representative cystometrograms (CMG) with micturition (voiding) events (indicated by asterisk) for spinal-intact, SCI+scrambled peptide (scr) and SCI+CRP groups at 3 months post-SCI. […] N=6 to 8 per group.
(A) Representative cystometrograms (CMG) with external urethral sphincter (EUS) electromyogram (EMG) recordings at micturition events for spinal-intact, SCI+scrambled peptide (scr) and SCI+CRP groups at 3 months post-SCI. […] The red dot indicates bursting activity. **, P<0.01; ***, P<0.001 when compared to the spinal-intact group; +, P<0.05, ++, P<0.01; +++, P<0.001 when compared to the scr group. N=6 to 8 per group.

spinal cord injury (SCI) [2] = assay: Bladder function after chronic SCI, CRP from two months after SCI; format: in vivo, rat
Description: as §1
(§3) The above were followed up with studies to evaluate the treatment effects of CRP in chronic SCI. The chronic SCI is not only way more challenge to be repaired but also is the clinical status of the majority of patients with SCI.
The box area indicates the bursting activity.

5HT fibers = assay: 5HT fiber sprouting in lumbar cord after chronic SCI; format: in vivo, rat; conditions: vs scrambled peptide
perineuronal nets (PNN) [3] = assay: PNN (WFA) in lumbar cord after chronic SCI; format: in vivo, rat
sciatic nerve injury = assay: Gait after complete sciatic nerve transection with peripheral nerve allograft, CRP treatment; format: in vivo; conditions: 3 months after complete sciatic nerve transection, subcutaneous once per day, vs vehicle
Description: The representative 2D trajectory and improved kinematics parameters indicated CRP treated animals improved the stepping more toward to what the uninjured limb did, while compared to the vehicle treated animals. The CRP was delivered through subcutaneous injection near the injured site (once per day) staring immediately after surgery for 3 months.

perineuronal nets (PNN) [4] = assay: Perineuronal nets (WFA staining) in lumbosacral spinal cord after T8 SCI; format: in vivo, rat; conditions: 3 months post SCI; vs scrambled peptide
Description: (A, B) Representative L4 spinal cord transverse images show CRP treatment reduces overall PNN in grey matter of lumbar spinal cord neurons at 3 months post SCI. Notice areas with clear decreased WFA staining of the PNN (asterisk). […] (E, F) Representative higher power immunostaining images of the ventral horn of
transverse L4 sections show the strong PNN intensity (arrow) surrounding the NeuN+ cells in scr treated SCI rats (E), while CRP treatment reduces them (F). *, P<0.05 when compared to the scr treatment. N=8 per group.

spinal cord injury (SCI) [5] = assay: Locomotion and gait after T8 contusive SCI, sub-acute CRP treatment; format: in vivo, rat
Description: as §1, §2
In particular, FIG. 26A-G show Kinematics assessment in SCI rats. (A) Representative total of hindlimb movement trajectories for spinal-intact, SCI+scrambled peptide (scr) and SCI+CRP groups at 3 months post-SCI. […] N=6 to 8 per group.

[6] = tested on: chondroitin sulfate proteoglycan (CSPG); assay: CSPG expression around the spinal cord lesion after contusive SCI, treatment from one day after SCI; format: in vivo, rat
Description: as §1, §2

spinal cord injury (SCI) [7] = assay: Locomotion (BBB 21-point score) and gait after chronic SCI, treatment from two months after SCI; format: in vivo, rat
Description: Basso, Beattie, and Bresnahan (BBB) 21-point scoring test is used as the locomotion assessment after SCI. SCI causes significant deficits on locomotion function as indicated by the significant drop of BBB scores from 21 of the normal rats. […] However, ISP treatment slightly decreases BBB scores from 11.667±0.211 (two months after SCI) to 11.00±0.577 (two months plus 42 days after SCI) (A).
as §1, §3

Neu7-produced CSPGs = assay: Reduction of CSPG produced by Neu7 cells; format: cell-based
[8] = tested on: serotonin (5-HT) fibers and traced fibers from brain stem and red nuclei; assay: Axon sprouting below the lesion after SCI, sub-acute CRP treatment; format: in vivo, rat
Description: as §2
In particular, 5HT immunoreactivity in lumbosacral level after SCI. […] (G, H) Representative images with double staining of […]

[9] = 3 months post-SCI, T8 SCI, vs scrambled peptide
[10] = 5 months post SCI vs two months post SCI (beginning of treatment)

YGRKKRRQRRR-PKPRVTWNKKGKKVNSQRF-KFERQKILDQRFFE (NYGRKKRRQRRRPKPRVTWNKKGKKVNSQRFKFERQKILDQRFFEC) [CRP]
EUS bursting activity (EUS EMG during the void) (spinal cord injury (SCI) [1]; [9]): improves EUS bursting activity | bladder capacity (CMG) (spinal cord injury (SCI) [1]; [9]): smaller bladder capacity | hyperactive bladder (CMG) (spinal cord injury (SCI) [1]; [9]): reduces hyperactive bladder | voiding pressure (CMG) (spinal cord injury (SCI) [1]; [9]): lower voiding pressure | number and amplitude of non-voiding contraction (overactive bladder) (spinal cord injury (SCI) [1]; after SCI, sub-acute treatment): reduction of both the number and amplitude of non-voiding contraction | residual volume and volume per void (spinal cord injury (SCI) [1]; after SCI, sub-acute treatment): reducing residual volume and volume per void toward normal condition | voiding patterns (spinal cord injury (SCI) [1]; after SCI, sub-acute treatment): improves voiding patterns | external urethral sphincter (EUS) activity: number of burst, EMG amplitude, coordination with detrusor contraction (spinal cord injury (SCI) [1]; during the void period, sub-acute treatment): improving external urethral sphincter (EUS) activity | hyperactive bladder (CMG) (spinal cord injury (SCI) [2]; 3 months of treatment starting at 2 months post SCI): reduce hyperactive bladder | EUS bursting activity during the void period (spinal cord injury (SCI) [2]; chronic SCI, vs scrambled peptide): improve EUS bursting activity | voiding patterns (spinal cord injury (SCI) [2]; subcutaneous injection beginning two-month after SCI): significantly improves | 5HT+ nerve fibers sprouting in lumbosacral level (5HT fibers): enhance 5HT+ nerve fibers sprouting | PNN (WFA+) in lumbar cord (perineuronal nets (PNN) [3]): robustly decreased PNN | stepping performance of hindlimbs (sciatic nerve injury): improved the stepping performance of hindlimbs | PNN at L4 and L6/S1 levels (perineuronal nets (PNN) [4]): significant reduction of PNN | gait pattern parameters (kinematics, hindlimb trajectories) (spinal cord injury (SCI) [5]; 3 months post-SCI, vs scrambled peptide): significantly improved several parameters of gait pattern | motor function recovery (spinal cord injury (SCI) [5]; out to 91 days post-contusion, sub-acute treatment): significantly promotes motor function recovery | CSPG ([6]; three months after SCI, sub-acute treatment): significantly decreased CSPG | CSPG in lesion epicenter and adjacent tissue ([6]; two weeks after contusive SCI, treatment starting one day after SCI, vs vehicle): significantly decreases SCI-induced increases in CSPG | BBB locomotion scale (spinal cord injury (SCI) [7]; [10]): significant increases in BBB locomotion scale | stepping kinematic of both hindlimbs (2D trajectory patterns) (spinal cord injury (SCI) [7]; [10]): improved stepping kinematic of both hindlimbs | average increases in BBB scores (spinal cord injury (SCI) [7]; by two months plus 42 days after SCI, treatment starting two months after SCI): 3.0±0.365 | BBB score (spinal cord injury (SCI) [7]; two months after SCI (start of treatment)): 11.75±0.164 | BBB score (spinal cord injury (SCI) [7]; two months plus 42 days after SCI, treatment starting two months after contusive SCI): 14.33±0.211 | dosage dependence of CSPG reduction (Neu7-produced CSPGs; Neu7 cells): dosage response | CSPG produced by Neu7 cells (Neu7-produced CSPGs; compared with ChABC): significantly reduces CSPG produced by Neu7 cells | nerve sprouting below lesion from neuron in brain stem and red nucleic ([8]; after SCI, sub-acute treatment): enhances nerve sprouting below lesion | sprouting of serotonin (5-HT) fibers below lesion ([8]; after SCI, sub-acute treatment): enhances sprouting of serotonin (5-HT) fibers | immunoreactivity of 5HT fibers at L4 and L6/S1 levels ([8]; severe contusive SCI, vs scrambled peptide): significantly increases immunoreactivity of 5HT fibers
